The numbers were not newly measured in PubChem BioAssay AID1259409 (Chemical Carcinogenesis Research Information System (CCRIS), 2018), which cites them from elsewhere.

This data set relates to rodent chemically induced tumor inhibition, incidence and multiplicity. Nature of the data set: CCRIS tumor inhibitor studies. The conditions noted are these: Promoter: NONE USED.

Molecules are shown by their SMILES.

Turning to `O=c1oc2c(O)c(O)cc3c(=O)oc4c(O)c(O)cc1c4c23`, the “tumour outcome (control, treated, inhibition, significance)” value by setting is: (Carcinogen: 2-AMINO-1-METHYL-6-PHENYL-1H-IMIDAZO[4,5-B]PYRID INE, 105650-23-5, Dose [Inhibitor]: 0, 0.1% IN THE DIET FOR 52 WK (STUDY DURATION: 52 WK), Route [Inhibitor]: ORAL, Species: RAT, Strain/Sex: F344/FEMALE, Target Tissue: Type of Lesion: MAMMARY GLAND: ADENOCARCINOMA, Dose [Carcinogen]: 0.02% IN THE DIET FOR 52 WK) 8/20 (40%), 5/19 (26%), 35%, not significant; (Carcinogen: 2-AMINO-1-METHYL-6-PHENYL-1H-IMIDAZO[4,5-B]PYRID INE, 105650-23-5, Dose [Inhibitor]: 0, 0.1% IN THE DIET FOR 52 WK (STUDY DURATION: 52 WK), Route [Inhibitor]: ORAL, Species: RAT, Strain/Sex: F344/FEMALE, Target Tissue: Type of Lesion: MAMMARY GLAND: FIBROADENOMA, Dose [Carcinogen]: 0.02% IN THE DIET FOR 52 WK) 2/20 (10%), 0/19 (0%), 100%, not significant; (Carcinogen: 2-AMINO-1-METHYL-6-PHENYLIMIDAZO[4,5-B]PYRIDINE, 105650-23-5, Dose [Inhibitor]: 0, 0.1% IN DIET FOR 52 WK CONCURRENTLY WITH CARCINOGEN TREATMENT (STUDY DURATION: 52 WK), Route [Inhibitor]: ORAL, Species: RAT, Strain/Sex: F344/FEMALE, Target Tissue: Type of Lesion: LARGE INTESTINE: ADENOMA OR CARCINOMA, Dose [Carcinogen]: 0.02% IN DIET FOR 52 WK) 2/18 (11%), 3/18 (17%), -55%, not significant; (Carcinogen: 2-AMINO-1-METHYL-6-PHENYLIMIDAZO[4,5-B]PYRIDINE, 105650-23-5, Dose [Inhibitor]: 0, 0.1% IN DIET FOR 52 WK CONCURRENTLY WITH CARCINOGEN TREATMENT (STUDY DURATION: 52 WK), Route [Inhibitor]: ORAL, Species: RAT, Strain/Sex: F344/FEMALE, Target Tissue: Type of Lesion: MAMMARY GLAND: ADENOCARCINOMA, Dose [Carcinogen]: 0.02% IN DIET FOR 52 WK) 8/20 (40%), 5/19 (26%), 35%, not significant; (Carcinogen: 3-METHYLCHOLANTHRENE, 56-49-5, Dose [Inhibitor]: 1 UMOL 2/WK FOR 16 WK APPLIED 1 HR PRIOR TO EACH CARCINOGEN TREATMENT (STUDY DURATION: 16 WK), Route [Inhibitor]: DERMAL, Species: MOUSE, Strain/Sex: BALB/FEMALE, Target Tissue: Type of Lesion: SKIN: TUMOR, Dose [Carcinogen]: 1.5 UMOL 2/WK FOR 16 WK) 100%, 50%, 50%, not calculated; (Carcinogen: 3-METHYLCHOLANTHRENE, 56-49-5, Dose [Inhibitor]: 1.0 UMOL APPLIED 1 HR PRIOR TO EACH CARCINOGEN DOSE 2/WK FOR 16 WK (STUDY DURATION: 16 WK), Route [Inhibitor]: DERMAL, Species: MOUSE, Strain/Sex: BALB/FEMALE, Target Tissue: Type of Lesion: SKIN: TUMOR, Dose [Carcinogen]: 1.5 UMOL 2/WK FOR 16 WK) 100%, 50%, 50%, not calculated. Moreover, the “tumour outcome (control, treated, inhibition, significance)” value is listed as 100%, 40%, 60%, not calculated (Carcinogen: 3-METHYLCHOLANTHRENE, 56-49-5, Dose [Inhibitor]: 2 UMOL 2/WK FOR 16 WK APPLIED 1 HR PRIOR TO EACH CARCINOGEN TREATMENT (STUDY DURATION: 16 WK), Route [Inhibitor]: DERMAL, Species: MOUSE, Strain/Sex: BALB/FEMALE, Target Tissue: Type of Lesion: SKIN: TUMOR, Dose [Carcinogen]: 1.5 UMOL 2/WK FOR 16 WK); 100%, 40%, 60%, not calculated (Carcinogen: 3-METHYLCHOLANTHRENE, 56-49-5, Dose [Inhibitor]: 2 UMOL APPLIED 1 HR PRIOR TO EACH CARCINOGEN DOSE 2/WK FOR 16 WK (STUDY DURATION : 16 WK), Route [Inhibitor]: DERMAL, Species: MOUSE, Strain/Sex: BALB/FEMALE, Target Tissue: Type of Lesion: SKIN: TUMOR, Dose [Carcinogen]: 1.5 UMOL 2/WK FOR 16 WK); 100%, 96%, 4%, not calculated (Carcinogen: 4-(METHYLNITROSAMINO)-1-(3-PYRIDYL)-1-BUTANONE, 64091-91-4, Dose [Inhibitor]: 0, 4 G/KG DIET 2 WK PRIOR TO CARCINOGEN TREATMENT AND CONTINUING FOR STUDY DURATION (STUDY DURATION: 26 MO), Route [Inhibitor]: ORAL, Species: MOUSE, Strain/Sex: STRAIN-A/FEMALE, Target Tissue: Type of Lesion: LUNG: ADENOMA, Dose [Carcinogen]: TOTAL DOSE 9.2 MG/MOUSE ADMINISTERED IN DRINKING WATER); 28/28 (100%), 24/25 (96%), 4%, not significant (Carcinogen: 4-(METHYLNITROSAMINO)-1-(PYRIDYL)-1-BUTANONE, 64091-91-4, Dose [Inhibitor]: 0, 4 G/KG DIET (37 UMOL/D) BEGINNING 2 WK PRIOR TO CARCINOGEN DOSE AND CONTINUING FOR DURATION OF STUDY (STUDY DURATION:, Route [Inhibitor]: ORAL, Species: MOUSE, Strain/Sex: STRAIN-A/FEMALE, Target Tissue: Type of Lesion: LUNG: ADENOMA, Dose [Carcinogen]: 9.2, 9.4 MG/MOUSE IN DRINKING WATER DURING 7 WK); 100%, 100%, 0%, not significant (Carcinogen: 4-(METHYLNITROSOAMINO-1-(PYRIDYL)-1-BUTANONE, 64091-91-4, Dose [Inhibitor]: 0, 4 G/KG DIET BEGINNING 1 D POST CARCINOGEN DOSE AND CONTINUING FOR 16 WK (STUDY DURATION: 16 WK), Route [Inhibitor]: ORAL, Species: MOUSE, Strain/Sex: STRAIN-A/FEMALE, Target Tissue: Type of Lesion: LUNG: ADENOMA, Dose [Carcinogen]: 2 MG IN 0.2 ML OF O.9% NACL ONCE).
